Data reported in US20240093151A1, “DEVICE AND METHOD FOR OBTAINING IMMUNO-STIMULATORY ANTIGEN-PRESENTING CELLS” (Transimmune AG, priority 2015, published 2024).
Ends that are not written are not given here.

Test system: platelets
Experiment: Activation of platelets by plasma protein fragment
Assay type: cell-based

HHLGGAKQAGDV
ability to activate platelets: able to activate platelets
